# Reference: PubChem BioAssay (NCI)
#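 Each compound was tested at five concentrations against cells in 96-well plates for 48 hours. GI50: concentration for 50% inhibition of growth. Definition used: TGI = concentration required for complete inhibition of growth.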
# Tests used:
# Test in all cases: DTP human tumour cell line panel, 48 h
# [1] = tested on: HCT-116 colon
# [2] = tested on: EKVX NSCLC
# [3] = tested on: SNB-75 CNS
# [4] = tested on: ACHN renal
# [5] = tested on: SW-620 colon
# [6] = tested on: UACC-257 melanoma
# [7] = tested on: NCI-H522 lung
# [8] = tested on: HOP-92 NSCLC
# [9] = tested on: NCI-H226 lung
# [10] = tested on: RPMI-8226 leukemia
# [11] = tested on: IGROV1 ovarian
# [12] = tested on: HCC-2998 colon
# [13] = tested on: SK-MEL-5 melanoma
# [14] = tested on: BT-549 breast
# [15] = tested on: MDA-MB-435
# [16] = tested on: MDA-MB-231 breast
# [17] = tested on: MOLT-4 leukemia
# [18] = tested on: HL-60(TB) leukemia
# [19] = tested on: M14 melanoma
# [20] = tested on: PC-3 prostate
# [21] = tested on: SF-295 CNS
# [22] = tested on: A498 renal
# [23] = tested on: A549 NSCLC
# [24] = tested on: UACC-62 melanoma
# [25] = tested on: K-562 leukemia
# [26] = tested on: MCF7 breast
# [27] = tested on: DU-145 prostate
# [28] = tested on: TK-10 renal
# [29] = tested on: NCI-H23 lung
# [30] = tested on: U251 CNS
# [31] = tested on: OVCAR-8 ovarian
# [32] = tested on: KM12 colon
# [33] = tested on: SNB-19 CNS
# [34] = tested on: HT29 colon
# [35] = tested on: COLO 205 colon
# [36] = tested on: OVCAR-4 ovarian
# [37] = tested on: RXF 393 renal
# [38] = tested on: SK-OV-3 ovarian
# [39] = tested on: 786-0 renal
# [40] = tested on: LOX IMVI melanoma
# [41] = tested on: UO-31 renal
# [42] = tested on: T-47D breast
# [43] = tested on: OVCAR-5 ovarian
# [44] = tested on: OVCAR-3 ovarian
# [45] = tested on: NCI-H460 lung
# [46] = tested on: HS 578T breast
# [47] = tested on: CCRF-CEM leukemia
# [48] = tested on: SK-MEL-28 melanoma
# [49] = tested on: SF-268 CNS
# [50] = tested on: CAKI-1 renal
# [51] = tested on: HOP-62 NSCLC
# [52] = tested on: SK-MEL-2 melanoma
# [53] = tested on: NCI/ADR-RES ovarian
# [54] = tested on: SF-539 CNS
# [55] = tested on: MALME-3M melanoma
# [56] = tested on: SR leukemia
# [57] = tested on: HCT-15 colon
# [58] = tested on: SN12C renal
smiles,measurement,setting,value
CN1CCN(CC(=O)N(C)c2ccc(N=C(c3ccccc3)c3c(O)[nH]c4ccc(C#N)cc34)cc2)CC1,GI50,[1],1.02 µM
same,TGI,[1],2.47 µM
same,GI50,[2],5.27 µM
same,TGI,[2],19.7 µM
same,TGI,[3],5.49 µM
same,GI50,[4],3.06 µM
same,TGI,[4],10.9 µM
same,GI50,[5],1.9 µM
same,TGI,[5],6.93 µM
same,GI50,[6],2.5 µM
same,TGI,[6],6.2 µM
same,GI50,[7],5.29 µM
same,TGI,[7],22.4 µM
same,GI50,[8],3.36 µM
same,TGI,[8],20.8 µM
same,GI50,[9],3.19 µM
same,TGI,[9],16 µM
same,GI50,[10],2.65 µM
same,TGI,[10],6.52 µM
same,GI50,[11],3.33 µM
same,TGI,[11],15.5 µM
same,GI50,[12],3.38 µM
same,TGI,[12],13.4 µM
same,GI50,[13],1.59 µM
same,TGI,[13],3.16 µM
same,GI50,[14],1.68 µM
same,TGI,[14],3.69 µM
same,GI50,[15],1.66 µM
same,TGI,[15],4.04 µM
same,GI50,[16],2.66 µM
same,TGI,[16],6.32 µM
same,GI50,[17],0.601 µM
same,TGI,[17],9.38 µM
same,GI50,[18],1.18 µM
same,TGI,[18],6.36 µM
same,GI50,[19],1.51 µM
same,TGI,[19],3.27 µM
same,GI50,[20],2.37 µM
same,TGI,[20],17 µM
same,GI50,[21],3.14 µM
same,TGI,[21],15.8 µM
same,GI50,[22],0.176 µM
same,TGI,[22],2.46 µM
same,GI50,[23],3.13 µM
same,TGI,[23],21.2 µM
same,GI50,[24],4.57 µM
same,TGI,[24],14.3 µM
same,GI50,[25],0.575 µM
same,TGI,[25],11.6 µM
same,GI50,[26],0.451 µM
same,TGI,[26],13.7 µM
same,GI50,[27],3.9 µM
same,TGI,[27],14.4 µM
same,GI50,[28],10.5 µM
same,TGI,[28],24.5 µM
same,GI50,[29],2.87 µM
same,TGI,[29],12.2 µM
same,GI50,[30],2.14 µM
same,TGI,[30],6.88 µM
same,GI50,[31],4.87 µM
same,TGI,[31],> 100 µM
same,GI50,[32],0.0516 µM
same,TGI,[32],6.03 µM
same,GI50,[33],4.16 µM
same,TGI,[33],16.6 µM
same,GI50,[34],0.712 µM
same,TGI,[34],15 µM
same,GI50,[35],0.528 µM
same,TGI,[35],12.4 µM
same,GI50,[36],3.03 µM
same,TGI,[36],14 µM
same,GI50,[37],1.39 µM
same,TGI,[37],3.38 µM
same,GI50,[38],0.614 µM
same,TGI,[38],21.1 µM
same,GI50,[39],2.3 µM
same,TGI,[39],14.6 µM
same,GI50,[40],1.08 µM
same,TGI,[40],2.58 µM
same,GI50,[41],2.42 µM
same,TGI,[41],11.4 µM
same,GI50,[42],14.2 µM
same,TGI,[42],41.1 µM
same,GI50,[43],7.11 µM
same,TGI,[43],19.2 µM
same,GI50,[44],3.19 µM
same,TGI,[44],14.2 µM
same,GI50,[45],1.38 µM
same,TGI,[45],3.25 µM
same,GI50,[46],0.0938 µM
same,TGI,[46],2.09 µM
same,GI50,[47],1.2 µM
same,TGI,[47],12.5 µM
same,GI50,[48],2.21 µM
same,TGI,[48],4.62 µM
same,GI50,[49],2.62 µM
same,TGI,[49],14.6 µM
same,GI50,[50],1.26 µM
same,TGI,[50],8.96 µM
same,GI50,[51],3.99 µM
same,TGI,[51],16.5 µM
same,GI50,[52],3.39 µM
same,TGI,[52],15.7 µM
same,GI50,[53],17.9 µM
same,TGI,[53],60.1 µM
same,GI50,[54],0.961 µM
same,TGI,[54],2.23 µM
same,GI50,[55],1.77 µM
same,TGI,[55],3.39 µM
same,GI50,[56],0.721 µM
same,TGI,[56],5.62 µM
same,GI50,[57],3.55 µM
same,TGI,[57],14.9 µM
same,GI50,[58],1.56 µM
same,TGI,[58],11.4 µM
